From ChEMBL document CHEMBL3046250, “Synthesis and anticonvulsant evaluation of 3-substituted-4-(4-hexyloxyphenyl)-4H-1,2,4-triazoles” (Med Chem Res, 2009)

Experiments:
[1] = Neurotoxicity in Mus musculus (mouse) by rotarod test; format: toxicity, organism-based; conditions: in vivo
Mus musculus [2] = test: Anticonvulsant activity in Mus musculus (mouse) assessed protection against subcutaneous pentylenetetrazole-induced seizures; format: functional; conditions: sc
[3] = Protective index, ratio of TD50 for neurotoxicity to ED50 for anticonvulsant activity in ip dosed Mus musculus C57B/6 (mouse); format: toxicity, organism-based; conditions: in vivo, read-out: Ratio TD50/ED50
[4] = Neurotoxicity in ip dosed Mus musculus C57B/6 (mouse) assessed as inability to maintain equilibrium measured after 30 min by rotarod test; format: toxicity, organism-based; conditions: in vivo
Mus musculus [5] = test: Anticonvulsant activity in ip dosed Mus musculus C57B/6 (mouse) assessed as protection against maximal electroshock-induced seizures; format: functional; conditions: C57B/6, ip

## O=C1CCc2cc(OCc3ccccc3)ccc2N1
[1]
  TD50: > 300 mg/kg

## c1ccc(COc2ccc3c(c2)CCc2nncn2-3)cc1
Mus musculus [2]
  ED50: 24 mg/kg

## CCCCCCOc1ccc2c(c1)CCc1nncn1-2
[3]
  selectivity ratio: 2.2

## CCCCCCOc1ccc(-n2cnnc2CCC)cc1
[3]
  selectivity ratio: 11.5
[4]
  TD50 at 0.5 h: 65.7 mg/kg
Mus musculus [5]
  ED50: 5.7 mg/kg

## CCCCCCOc1ccc(-n2cnnc2CCCC)cc1
[3]
  selectivity ratio: 8.1
[4]
  TD50 at 0.5 h: 110 mg/kg
Mus musculus [5]
  ED50: 13.6 mg/kg

## CCCCCCOc1ccc(-n2cnnc2CCCCC)cc1
[3]
  selectivity ratio: 5.8
[4]
  TD50 at 0.5 h: 189 mg/kg
Mus musculus [5]
  ED50: 32.8 mg/kg

## CCCCCCOc1ccc(-n2cnnc2CCCCCC)cc1
Mus musculus [5]
  ED50: > 40 mg/kg

## CCCCCCCc1nncn1-c1ccc(OCCCCCC)cc1
Mus musculus [5]
  ED50: > 40 mg/kg

## CCCCCCCCCc1nncn1-c1ccc(OCCCCCC)cc1
Mus musculus [5]
  ED50: > 40 mg/kg

## CCCCCCOc1ccc(-n2cnnc2-c2ccccc2)cc1
[3]
  selectivity ratio: 7.2
[4]
  TD50 at 0.5 h: 137 mg/kg
Mus musculus [5]
  ED50: 19 mg/kg

## CCCCCCOc1ccc(-n2cnnc2-c2ccc(F)cc2)cc1
[3]
  selectivity ratio: 4.2
[4]
  TD50 at 0.5 h: 91.3 mg/kg
Mus musculus [5]
  ED50: 22 mg/kg

## CCCCCCOc1ccc(-n2cnnc2-c2ccccc2F)cc1
[3]
  selectivity ratio: 5
[4]
  TD50 at 0.5 h: 101 mg/kg
Mus musculus [5]
  ED50: 20.2 mg/kg

## CCCCCCOc1ccc(-n2cnnc2-c2cccc(F)c2)cc1
[3]
  selectivity ratio: 3.8
[4]
  TD50 at 0.5 h: 104 mg/kg
Mus musculus [5]
  ED50: 27.4 mg/kg

## CCCCCCOc1ccc(-n2cnnc2-c2ccc(Cl)cc2)cc1
[3]
  selectivity ratio: 6.9
[4]
  TD50 at 0.5 h: 137 mg/kg
Mus musculus [5]
  ED50: 19.7 mg/kg

## CCCCCCOc1ccc(-n2cnnc2-c2ccccc2Cl)cc1
[3]
  selectivity ratio: 6.9
[4]
  TD50 at 0.5 h: 91.2 mg/kg
Mus musculus [5]
  ED50: 13.2 mg/kg

## CCCCCCOc1ccc(-n2cnnc2-c2ccc(C)cc2)cc1
[3]
  selectivity ratio: 8.8
[4]
  TD50 at 0.5 h: 101 mg/kg
Mus musculus [5]
  ED50: 11.4 mg/kg

## CCCCCCOc1ccc(-n2cnnc2-c2ccc(OC)cc2)cc1
[3]
  selectivity ratio: 7.6
[4]
  TD50 at 0.5 h: 120 mg/kg
Mus musculus [5]
  ED50: 15.8 mg/kg

## CCCCCCOc1ccc(-n2cnnc2Cc2ccccc2)cc1
[3]
  selectivity ratio: 6.9
[4]
  TD50 at 0.5 h: 131 mg/kg
Mus musculus [5]
  ED50: 19 mg/kg

## CCCCCCOc1ccc(-n2cnnc2CCc2ccccc2)cc1
[3]
  selectivity ratio: 5.7
[4]
  TD50 at 0.5 h: 158 mg/kg
Mus musculus [5]
  ED50: 27.4 mg/kg

## CCCCCCOc1ccc(-n2cnnc2)cc1
[3]
  selectivity ratio: 11.4
[4]
  TD50 at 0.5 h: 112 mg/kg
Mus musculus [5]
  ED50: 9.8 mg/kg

## CCCCCCOc1ccc(-n2cnnc2C)cc1
[3]
  selectivity ratio: 4.9
[4]
  TD50 at 0.5 h: 114 mg/kg
Mus musculus [5]
  ED50: 22.8 mg/kg

## CCCCCCOc1ccc(-n2cnnc2CC)cc1
[3]
  selectivity ratio: 4.7
